Values after ≈ are worked out from the molar mass of the structure shown. Where a name gives a salt, the structure may show the parent alone. Some results are limits rather than exact numbers.

The term MIC50 denotes the lowest concentration that inhibits either 50% of growth or 50% of the strains tested, depending on the study. High values mean weaker potency, low ones greater potency. Usually MIC90 stands for an inhibitory concentration at the 90% level, which refers to growth in some studies and to a panel of isolates in others.

For this test, the system named is 17 highly resistant MRSA strains. Briefly: In vitro activity: minimum inhibitory concentration (MIC) by the agar dilution method in Mueller Hinton agar, 17 highly resistant MRSA strains. It is filed as cell-based, Methicillin resistant Staphylococcus aureus (MRSA). To be noted: inoculum =10^5 CFU/spot. The procedure: In vitro activity was determined by minimum inhibitory concentration (MIC) by the agar dilution method in Mueller Hinton agar inoculum =10^5 CFU/spot.
In general terms: In agar dilution the substance is mixed into plates at graded concentrations.

On to `CCN1CCN(C(=O)N[C@@H](C(=O)N[C@@H]2C(=O)N3C(C(=O)O)=C(CSc4nnnn4C)CS[C@H]23)c2ccc(O)cc2)C(=O)C1=O` [Cefoperazone, reference compound], for which, for the setting “Table 1, substance alone”, the MIC50 is more than 64 µg/mL, the MIC90 was more than 64 µg/mL and the “range of MIC” value is more than 64 µg/mL.
For the setting “Table 1, substance alone”, `O=C(C[n+]1ccc(CN2CC/C(=C\C3=C(C(=O)[O-])N4C(=O)[C@@H](NC(=O)CSc5cc(Cl)ccc5Cl)[C@H]4SC3)C2=O)cc1)Nc1ccc(O)c(F)c1` [Ex. 10] displayed an MIC50 of more than 16 µg/mL and an MIC90 of more than 16 µg/mL. For the setting “Table 2, substance alone”, this molecule had an MIC50 of more than 16 µg/mL and an MIC90 of more than 16 µg/mL.
For `O=C(C[n+]1ccc(CN2CC/C(=C\C3=C(C(=O)[O-])N4C(=O)[C@@H](NC(=O)CSc5ccc6ccccc6c5)[C@H]4SC3)C2=O)cc1)Nc1ccc(O)c(F)c1` [Ex. 5, (E)-(6R,7R)-3-[1-[1-[(3-Fluoro-4-hydroxy-phenylcarbamoyl)-methyl]-pyridin-1-ium-4-ylmethyl]-2-oxo-pyrrolidin-3-ylidenemethyl]-7-[2-(naphthalen-2-ylsulfanyl)-acetylamino]-8-oxo-5-thia-1-aza-bicyclo[4.2.0]oct-2-ene-2-carboxylat], where the note is “Table 1, substance alone”, the MIC50 was more than 16 µg/mL and the MIC90 was more than 16 µg/mL. Under “Table 2, substance alone”, this molecule had an MIC50 of more than 16 µg/mL and an MIC90 of more than 16 µg/mL.
Regarding `CO/N=C(\C(=O)N[C@@H]1C(=O)N2C(C(=O)O)=C(CSc3nc(=O)c(=O)[nH]n3C)CS[C@H]12)c1csc(N)n1` [Ceftriaxone, reference compound], under “Table 1, substance alone”, the MIC50 is more than 64 µg/mL, the MIC90 was more than 64 µg/mL and the “range of MIC” value was more than 64 µg/mL.
In turn, `O=C(CSc1ccc2ccccc2c1)N[C@@H]1C(=O)N2C(C(=O)O)=C(/C=C3\CCN(C4CC4)C3=O)CS[C@H]12.c1c[nH]cn1` [Ex. 12, (E)-(6R,7R)-3-(1-Cyclopropyl-2-oxo-pyrrolidin-3-ylidenemethyl)-7-[2-(naphthalen-2-ylsulfanyl)-acetylamino]-8-oxo-5-thia-1-aza-bicyclo[4.2.0]oct-2-ene-2-carboxylic acid imidazole salt (1:1)] had an MIC50 (Table 1, substance alone) of 16 µg/mL and an MIC50 (Table 2, substance alone) of 16 µg/mL. Besides, the MIC90 is more than 16 µg/mL (Table 1, substance alone) and more than 16 µg/mL (Table 2, substance alone).
On to `C[C@]1(/C=C\C#N)[C@H](C(=O)[O-])N2C(=O)C[C@H]2S1(=O)=O.[Na+]` [compound B, sodium-(Z)-(2S,3S ,R)-3-(2-cyanoethenyl)-3-methyl-4,4,7-trioxo-4-thia-1-aza-bicyclo[3.2.0]heptane-2-carboxylate, reference compound], for which, for the setting “Table 2, substance alone”, the MIC50 was more than 16 µg/mL, the MIC90 was more than 16 µg/mL and the “range of MIC” value was more than 16 µg/mL.
Take `NS(=O)(=O)c1ccc(CN2CC/C(=C\C3=C(C(=O)O)N4C(=O)[C@@H](NC(=O)CSc5ccccc5)[C@H]4SC3)C2=O)cc1` [Ex. 14]: for the setting “Table 1, substance alone”, the MIC50 was 16 µg/mL (≈ 26 µM) and the MIC90 is more than 16 µg/mL.
Taken in the same sequence, the figures for `O=C(CSc1nc2ccccc2s1)N[C@@H]1C(=O)N2C(C(=O)O)=C(/C=C3\CCN(CC4CC4)C3=O)CS[C@H]12` [Ex. 3, (E)-(6R,7R)-7-[2-(Benzothiazol-2-ylsulfanyl)-acetylamino]-3-(1-cyclopropyl-methyl-2-oxo-pyrrolidin-3-ylidenemethyl)-8-oxo-5-thia-1-aza-bicyclo[4.2.0]-oct-2-ene-2-carboxylic acid] were 16 µg/mL (≈ 28.7 µM) and more than 16 µg/mL.
For the molecule `CN(C)CCn1nnnc1SCC1=C(C(=O)O)N2C(=O)[C@@H](NC(=O)Cc3csc(N)n3)[C@H]2SC1` [Cefotiam, reference compound], under “Table 1, substance alone”, the MIC50 is more than 64 µg/mL, the MIC90 is more than 64 µg/mL and the “range of MIC” value was more than 64 µg/mL.
Under “Table 1, substance alone”, `O=C(C[n+]1ccc(CN2CC/C(=C\C3=C(C(=O)[O-])N4C(=O)[C@@H](NC(=O)CSc5nc6ccccc6s5)[C@H]4SC3)C2=O)cc1)Nc1ccc(O)cc1` [Ex. 2, (E)-(6R,7R)-3-[1-[1-[(4-Hydroxy-phenylcarbamoyl)-methyl]-pyridin-1-ium-4-ylmethyl]-2-oxo-pyrrolidin-3-ylidenemethyl]-8-oxo-7-[2-(1-benzothiazol-2-ylsulfanyl)-acetylamino]-5-thia-1-aza-bicyclo[4.2.0]oct-2-ene-2-carboxylate] gave an MIC50 of more than 16 µg/mL and an MIC90 of more than 16 µg/mL. For the same molecule, where the note is “Table 2, substance alone”, the MIC50 is more than 16 µg/mL and the MIC90 is more than 16 µg/mL.
For `O=C(C[n+]1ccc(CN2CC/C(=C\C3=C(C(=O)[O-])N4C(=O)[C@@H](NC(=O)CSc5ccncc5)[C@H]4SC3)C2=O)cc1)Nc1ccc(O)cc1` [Ex. 4, (E)-(6R,7R)-3-[1-[1-[(4-Hydroxy-phenylcarbamoyl)-methyl]-pyridin-1-ium-4-ylmethyl]-2-oxo-pyrrolidin-3-ylidenemethyl]-8-oxo-7-[2-(pyridin-4-yl-sulfanyl)-acetylamino]-5-thia-1-aza-bicyclo[4.2.0]oct-2-ene-2-carboxylate], the MIC50 reads like this: (Table 1, substance alone) more than 16 µg/mL; (Table 2, substance alone) more than 16 µg/mL. Also, the MIC90 (Table 1, substance alone) is more than 16 µg/mL and the MIC90 (Table 2, substance alone) is more than 16 µg/mL.
As for `O=C(C[n+]1ccc(CN2CC/C(=C\C3=C(C(=O)[O-])N4C(=O)[C@@H](NC(=O)CSc5cc(Cl)c(Cl)cc5Cl)[C@H]4SC3)C2=O)cc1)Nc1ccc(O)cc1` [Ex. 1, (E)-(6R,7R)-3-[1-[1-[(4-Hydroxy-phenylcarbamoyl)-methyl]-pyridin-1-ium-4-ylmethyl]-2-oxo-pyrrolidin-3-ylidenemethyl]-8-oxo-7-[2-(2,4,5-trichloro-phenylsulfanyl)-acetylamino]-5-thia-1-aza-bicyclo[4.2.0]oct-2-ene-2-carboxylate], the MIC50 reads like this: (Table 1, substance alone) more than 16 µg/mL; (Table 2, substance alone) more than 16 µg/mL. The molecule further yielded an MIC90 (Table 1, substance alone) of more than 16 µg/mL and an MIC90 (Table 2, substance alone) of more than 16 µg/mL.
As for `Cl.O=C(CSc1ccccc1)N[C@@H]1C(=O)N2C(C(=O)O)=C(/C=C3\CCN([C@@H]4CCNC4)C3=O)CS[C@H]12` [Ex. 11, (E)-(6R,7R)-8-Oxo-3-[(R)-2-oxo-[1,3']bipyrrolidinyl-3-ylidenemethyl]-7-(2-phenylsulfanyl-acetylamino)-5-thia-1-aza-bicyclo[4.2.0]oct-2-ene-2-carboxylic acid hydrochloride (1:1)], the MIC50 is, setting by setting: (Table 1, substance alone) 16 µg/mL; (Table 2, substance alone) 16 µg/mL. Besides, the MIC90 was more than 16 µg/mL (Table 1, substance alone) and more than 16 µg/mL (Table 2, substance alone).
As for `Cc1cc(=O)c(C(=O)N[C@@H](C(=O)N[C@@H]2C(=O)N3C(C(=O)O)=C(CSc4nnnn4C)CS[C@H]23)c2ccc(O)cc2)c[nH]1` [Cefpiramid, reference compound], for the setting “Table 1, substance alone”, the MIC50 was more than 64 µg/mL, the MIC90 is more than 64 µg/mL and the “range of MIC” value is more than 64 µg/mL.
Regarding `O=C(CSc1ccc2ccccc2c1)N[C@@H]1C(=O)N2C(C(=O)[O-])=C(/C=C3\CCN(c4ccc(O)cc4)C3=O)CS[C@H]12.[Na+]` [Ex. 13, (E)-(6R,7R)-3-[1-(4-Hydroxy-phenyl)-2-oxo-pyrrolidin-3-ylidenemethyl]-7-[2-(naphthalene-2-ylsulfanyl)-acetylamino]-8-oxo-5-thia-1-aza-bicyclo[4.2.0]oct-2-ene-2-carboxylic acid sodium salt (1:1)], for the setting “Table 1, substance alone”, the MIC50 came to 16 µg/mL and the MIC90 was more than 16 µg/mL.
On to `O=C(C[n+]1ccc(CN2CC/C(=C\C3=C(C(=O)[O-])N4C(=O)[C@@H](NC(=O)CSc5ccccc5)[C@H]4SC3)C2=O)cc1)Nc1ccc(O)c(F)c1` [Ex. 9, (E)-(6R,7R)-3-[1-[1-[(3-Fluoro-4-hydroxy-phenylcarbamoyl)-methyl]-pyridin-1-ium-4-ylmethyl]-2-oxo-pyrrolidin-3-ylidenemethyl]-8-oxo-7-(2-phenylsulfanyl-acetylamino)-5-thia-1-aza-bicyclo[4.2.0]oct-2-ene-2-carboxylate], for which, where the note is “Table 1, substance alone”, the MIC50 amounted to 16 µg/mL (≈ 22.7 µM) and the MIC90 is 16 µg/mL (≈ 22.7 µM). Under “Table 2, substance alone”, this molecule yielded an MIC50 of 16 µg/mL (≈ 22.7 µM) and an MIC90 of 16 µg/mL (≈ 22.7 µM).
On to `CO/N=C(\C(=O)N[C@@H]1C(=O)N2C(C(=O)O)=C(COC(C)=O)CS[C@H]12)c1csc(N)n1` [Cefotaxime, reference compound], for which, under “Table 1, substance alone”, the MIC50 is more than 64 µg/mL, the MIC90 is more than 64 µg/mL and the “range of MIC” value was more than 64 µg/mL.
Where the note is “Table 1, substance alone”, `O=C(CSc1cc(Cl)c(Cl)cc1Cl)N[C@@H]1C(=O)N2C(C(=O)O)=C(/C=C3\CCN(Cc4cccc(O)c4)C3=O)CS[C@H]12` [Ex. 6, (E)-(6R,7R)-3-[1-(3-Hydroxy-benzyl)-2-oxo-pyrrolidin-3-ylidenemethyl]-8-oxo-7-[2-(2,4,5-trichloro-phenylsulfanyl)-acetylamino]-5-thia-1-aza-bicyclo[4.2.0]oct-2-ene-2-carboxylic acid] yielded an MIC50 of 16 µg/mL (≈ 24.4 µM) and an MIC90 of more than 16 µg/mL. Moreover, where the note is “Table 2, substance alone”, the MIC50 was 16 µg/mL (≈ 24.4 µM) and the MIC90 was more than 16 µg/mL.
In the case of `O=C(CSc1cc(Cl)c(Cl)cc1Cl)N[C@@H]1C(=O)N2C(C(=O)O)=C(/C=C3\CCN(C4CCNC4)C3=O)CS[C@H]12` (mixture of isomers) [Ex. 8, Mixture of (E)-(6R,7R)-8-oxo-3-[(R)- and-[(S)-2-oxo-[1,3']bipyrrolidinyl-3-ylidenemethyl]-8-oxo-7-[2-(2,4,5-trichloro-phenylsulfanyl)-acetylamino]-5-thia-1-aza-bicyclo[4.2.0]oct-2-ene-2-carboxylic acid hydrochloride], the MIC50 (Table 1, substance alone) was more than 16 µg/mL and the MIC50 (Table 2, substance alone) is more than 16 µg/mL. In addition, the MIC90 was more than 16 µg/mL (Table 1, substance alone) and more than 16 µg/mL (Table 2, substance alone).
Turning to `O=C(CSc1ccc2ccccc2c1)N[C@@H]1C(=O)N2C(C(=O)O)=C(/C=C3\CCN(Cc4cccc(O)c4)C3=O)CS[C@H]12` [Ex. 7], for the setting “Table 1, substance alone”, the MIC50 amounted to 16 µg/mL (≈ 26.6 µM), the MIC90 came out at 16 µg/mL (≈ 26.6 µM) and the “range of MIC” value was in the range of 2 to 16 µg/mL. Besides, for the setting “Table 2, substance alone”, the MIC50 is 16 µg/mL (≈ 26.6 µM), the MIC90 is 16 µg/mL (≈ 26.6 µM) and the “range of MIC” value was 2 to 16 µg/mL.
